Experiment: [3H]-Gabapentin Binding Assay: A test compound (20 μL) diluted to 5 times of the final concentration with Binding buffer, [3H]-gabapentin diluted to 100 nmol/L with binding buffer [20 μL (final concentration 20 nmol/L)], and the rat cerebral cortex membrane fraction (60 μL; 12 μg membrane fraction) obtained in the (1) above were added to each well of a 96-well round-bottom plate. After being sufficiently mixed, these were allowed to react at room temperature for 1 hour. After the reaction, the reaction sample was suction filtered using a filter plate with 50 μL/well of 0.3 vol % polyethyleneimine added, and a cell harvester. The filter was then washed with ice-cooled Wash buffer (100 mmol/L NaCl, 0.1 w/v % BSA). After being washed, the filter plate was dried, and a scintillation cocktail (MicroScint-20, purchased from PerkinElmer) was added (50 μL/well), and the radioactivity on the filter was measured. The radioactivity obtained in the absence of the test compound was measured as total binding amount, and the radioactivity obtained by addition of an unlabeled gabapentin (final concentration 100 mmol/L) as a test compound was measured as non-specific binding amount.

| IC50 | SMILES |
| --- | --- |
| 3 nM | CCNc1ncc2c(n1)N1CCC[C@H]1CN(c1scc3c(=O)n(C)cnc13)C2=O |
| 5 nM | CCNc1ncc2c(n1)N1CCC[C@H]1CN(c1cccc3c(=O)n(C)ccc13)C2=O |
| 1.2 nM | CNc1ncc2c(n1)N1CCC[C@H]1CN(c1cccc3c(=O)n(CCCN(C)C)cnc13)C2=O |
| 3.6 nM | CNc1ncc2c(n1)N1CCC[C@H]1CN(c1c[nH]c3ncn(C)c(=O)c13)C2=O |
| 4.8 nM | CCNc1ncc2c(n1)N1CCC[C@H]1CN(c1cccc3c(=O)n(CCF)c(C)nc13)C2=O |
| 4.7 nM | CNc1ncc2c(n1)N1CCC[C@H]1CN(c1cccn3c(=O)c(C)c(C)nc13)C2=O |
| 3 nM | CCCNc1ncc2c(n1)N1CCC[C@H]1CN(c1cccc3c(=O)n(C)cnc13)C2=O |
| 3.9 nM | CCNc1ncc2c(n1)N1CCC[C@H]1CN(c1cccc3ncn(C)c(=O)c13)C2=O |
| 2.6 nM | CCNc1ncc2c(n1)N1CCC[C@H]1CN(c1c[nH]c3ncn(C)c(=O)c13)C2=O |
| 0.7 nM | CCNc1ncc2c(n1)N1CCC[C@H]1CN(c1cccc3c(=O)n(CCCN(C)C)cnc13)C2=O |
| 3.8 nM | CCNc1ncc2c(n1)N1CCC[C@H]1CN(c1cccc3c(=O)n(C)c(COC)nc13)C2=O |
| 4 nM | CCn1cnc2c(N3C[C@@H]4CCCN4c4nc(NC)ncc4C3=O)cccc2c1=O |
| 2.6 nM | CNc1ncc2c(n1)N1CCC[C@H]1CN(c1cccc3c(=O)n(C)cnc13)C2=O |
| 4.1 nM | CNc1ncc2c(n1)N1CCC[C@H]1CN(c1cncc3c(=O)n(C)cnc13)C2=O |
| 2.7 nM | CCNc1ncc2c(n1)N1CCC[C@H]1CN(c1cccn3c(=O)c(C)c(C)nc13)C2=O |
| 2.6 nM | CCNc1ncc2c(n1)N1CCC[C@H]1CN(c1cccc3c(=O)n(C)c(C)nc13)C2=O |
| 5.2 nM | CCNc1ncc2c(n1)N1CCC[C@H]1CN(c1cccn3c(=O)cc(C)nc13)C2=O |

Source: ChEMBL document CHEMBL3886937, “Pyrimidodiazepinone compound” (2016)
